The source of these data is US20250099393A1, “IONIZABLE LIPIDS, LIPID NANOPARTICLES, AND USES THEREOF” (Verily Life Sciences LLC, priority 2022, published 2025).

A short description of the data set: pKa of the ionizable lipid (ethanolamine headgroup). The settings on record: uncharged at physiological pH. The format is physicochemical.

Usually pKa stands for the negative logarithm of the acid dissociation constant. A higher pKa goes with a group that holds its proton tightly. In turn, `CCCCC/C=C\C/C=C\CCCCCCCCOC(=O)CCCCCCCN(CCO)CCCCCCCC(=O)OC(CCCCCCCC)CCCCCCCC` [PCTA-1] registered a pKa of 6.2 to 6.8.
